Measurements taken from patent US4243679A, “S-(3-Methyl-2-butenyl)cysteine” (priority 1978, dated 1981).
Where two headings read alike, the source gives them in different places.

Key:
[1] = test system: respiratory mucus; assay: Modification of respiratory mucus composition, Giraldez-Gras method; type: in vivo, rabbit
Procedure: By means of an original technique (Giraldez and Gras), XXVI Congr. IUPS, Abstr. 777, Paris 1977)) which allows the collection of abundant samples of mucus on conscious animals and on consecutive days, the amount of eliminated mucus, its biochemical composition and its physico-chemical constants were studied. In addition to the two standards used before, N-acetylcysteine was also administered by topic route. |Modification of mucus composition. Giraldez-Gras Method, in rabbit |Oral route n = 12-30 = number of test animals

[2] = Acute toxicity, two species (overall statement); type: in vivo, Rat; Mouse; conditions: oral and intraperitoneal
Description: (§1) The weight of the animals was of 180±20 g for rats and >25 g for mice.

[3] = test system: tracheobronchial secretion; assay: Secretogogue activity, Mawatari's technique (bronchial elimination of sodium fluoresceine), mouse; type: in vivo
Procedure: (§2) The capacity of increasing tracheobronchial secretion was determined by the technique of bronchial elimination of sodium fluoresceine (Mawatari, Kagoshima Daigak Igaku Zasshi, 27, 561 (1976)) on two animal species and by two different administration routes: oral and parenteral.
(§3) Secretogogue activity - Mawatari's technique
(§4) Three dose levels n = 15-40 = number of test animals
(§5) Male animals were used -

[4] = test system: ciliary epithelium; assay: Effect on the ciliary movement: mucus transport time in isolated dog trachea
Description: This vehicle was also used as the blank.
Mucus transport time, in isolated dog trachea

[5] = Acute toxicity, rat; conditions: in vivo
Description: as §1

[6] = Subchronic toxicity in rat (six months); type: in vivo; conditions: 100, 300 and 1000 mg/kg/day
Description: ITA 275 was given during six months to rats at the same doses as in the preceding test. The number of animals used was of 100 (.male./.female.=50/50).

[7] = test system: tracheobronchial secretion; assay: Secretogogue activity, Mawatari's technique (bronchial elimination of sodium fluoresceine), rat; type: in vivo
Procedure: as §2, §3, §4, §5

[8] = test system: mucus; assay: Expectorant activity, Perry-Boyd technique; type: in vivo; conditions: rabbit; for % increase with regard to controls: fluid collected
Description: Determination of the expectorant activity was achieved by the technique of collecting mucus of anaesthetized rabbits breathing in conditioned air at body humidity and temperature (Perry and Boyd, J. Pharmacol. Exp. Ther., 23 65(194l)), and measuring the percentage increase of fluid collected in relation to controls.
Expectorant activity. Perry-Boyd technique, in
rabbit. Oral route, n = 12 = number of test

[9] = test system: tracheobronchial secretion; assay: Secretogogial activity, bronchial elimination of sodium fluoresceine, two animal species (overall statement); type: in vivo, Mouse; Rat; conditions: oral and parenteral
Procedure: as §2

[10] = Subacute toxicity in rat (one month); type: in vivo; conditions: 100, 300 and 1000 mg/kg/day
Procedure: In order to study the toxicity of ITA 275 in the rat, this compound was given at doses of 100, 300 and 1000 mg/kg/day during one month, to 100 rats (.male./.female.=50/50)

[11] = Acute toxicity, mouse; conditions: in vivo
Description: as §1

[12] = oral; cited from earlier work
[13] = rabbit, oral, 500 mg/kg, ***p < 0,005
[14] = ip, confidence limits on next printed line
[15] = ip, confidence limits printed on next line
[16] = rabbit, 0,1 ml/kg sol. 20% (topic)

Compound	% Increase SH Groups ([1]; rabbit, oral, 500 mg/kg)	% Increase mucus weight ([1]; rabbit, oral, 500 mg/kg)	% Increase Muco-proteins [1, 13]	Max. efficiency % secretion increase ([3]; i.p.)	ED25 ([3]; ip, read-out: ED25) [mg/kg]	Max. efficiency % secretion increase ([3]; p.o.)	LD50 [5, 14] [mg/kg]	LD50 ([5]; po) [mg/kg]	Max. efficiency % secretion increase ([7]; p.o.)	ED50 ([7]; po, read-out: ED50) [mg/kg]	% increase with regard to controls ([8]; 500 mg/kg p.o.)	Secretogogial activity (in words) [9]	LD50 [11, 15] [mg/kg]	LD50 ([11]; po) [mg/kg]	ED25 ([3]; p.o.)	other results
CC(C)=CCSC[C@H](N)C(=O)O [ITA 275, S-(3-methyl-2-butenyl)-cysteine]	29,2 ± 14,4%	466,1 ± 343,5%	32,7 ± 14,3%	42,7%	218	20,7%	3100	> 4000	57,0%	447	135,6%	showed activity	2090	> 4000		content of total proteins (in words) ([1]; rabbit): increase in the content of total proteins; mucolytic property demonstrated by the release of -SH groups (in words) ([1]; rabbit): does not present the mucolytic property of N-acetylcysteine; mucus elimination (in words) ([1]; rabbit): great increase in mucus elimination; acute toxicity (in words) [2]: very low acute toxicity both by oral and intraperitoneal routes; acute toxicity compared with S-carboxymethylcysteine (in words) [2]: even smaller than that of S-carboxymethylcysteine; ED25 ([3]; po, read-out: ED25): 611 mg/kg; % increase of ciliary transport time ([4]; 10 mM, 0 min, p<0,001): 162,3 ± 13,4%; % increase of ciliary transport time ([4]; 10 mM, 10 min, p<0,01): 107,3 ± 21,8%; % increase of ciliary transport time ([4]; 10 mM, 20 min): 16,2 ± 7,6%; duration of the increase in transport time ([4]; isolated dog trachea): at least 20 min.; tolerability [6]: well tolerated; Expectorant activity compared with S-carboxymethylcysteine (in words) ([8]; oral route): somewhat more active than S-carboxymethylcysteine; general behaviour [10]: No abnormalities; hematological values [10]: remained normal; liver weight [10]: slight increase in liver weight; weight increase, food and water intake [10]: did not modify either the weight increase or the food and water intake; weight of all other organs [10]: did not undergo weight changes
N[C@@H](CSCC(=O)O)C(=O)O [S-Carboxymethylcysteine, S-carboxymethylcysteine]	11,6 ± 34,2%	16,4 ± 44,9%	131,9 ± 91,8%	22,3%	764	6,3%	2480	> 4000	39,3%	1070	110,9%	below statistical significance and did not follow a constant dose-effect sequence	1780	> 4000	no corre-	% Increase total proteins ([1]; rabbit, oral, 500 mg/kg): 31,7 ± 27,4%
CC(=O)N[C@@H](CS)C(=O)O [N-acetylcysteine]																% Increase mucus weight [1, 16]: 150,9 ± 30,8%; % Increase total proteins [1, 16]: 491,4 ± 311,1%; % Increase Muco-proteins ([1]; rabbit, 0,1 ml/kg sol. 20% (topic), **p < 0,01): 2450,3 ± 480,5%; % Increase SH Groups ([1]; rabbit, 0,1 ml/kg sol. 20% (topic), *p < 0,1): 305,5 ± 102,9%
COc1cc2c3cc1Oc1cc(ccc1O)C[C@@H]1c4c(cc(OC)c(O)c4Oc4ccc(cc4)C[C@@H]3N(C)CC2)CC[N+]1(C)C [d-turbocurarine]																% increase of ciliary transport time ([4]; 10^-4 g/ml, 0 min): 69,8 ± 12,3%; % increase of ciliary transport time ([4]; 10^-4 g/ml, 10 min): 32,3 ± 14,5%
CN(Cc1cc(Br)cc(Br)c1N)C1CCCCC1 [Bisolvon, Bromhexine]				26,0%	32	34,7%			14,8%			below statistical significance and did not follow a constant dose-effect sequence			no corre-	% Increase Muco-proteins ([1]; rabbit, oral, 40 mg/kg): 4,9 ± 8,9%; % Increase SH Groups ([1]; rabbit, oral, 40 mg/kg): 0,3 ± 13,4%; % Increase mucus weight ([1]; rabbit, oral, 40 mg/kg): -6,1 ± 8,3%; % Increase total proteins ([1]; rabbit, oral, 40 mg/kg): 3,1 ± 14,4%; absorption when orally administered (in words) [12]: well adsorbed when orally administered; side effects (in words) [12]: practically no side effects; ED50 ([7]; p.o.): no corre-; % increase with regard to controls ([8]; 20 mg/kg p.o.): 20,6%; % increase with regard to controls ([8]; 40 mg/kg p.o.): 38,1%
